Here are results for 1 compound from patent US20250195660A1, “INACTIVATING BACTERIA WITH ELECTRIC PULSES AND ANTIBIOTICS” (Purdue Research Foundation, priority 2018, published 2025).

The test system of the test is gentamicin, streptomycin and sulfonamide resistant Pseudomonas aeruginosa (BEI Resources NR-31040). Nature of the test: Inactivation of P. aeruginosa by 300 ns electric pulses and/or antibiotics (CFU plating). Format: cell-based. Conditions: 20 kV/cm EPs + 20 μg/mL. An excerpt: Except for rifampicin, the five other antibiotics in these examples primarily target gram-positive bacteria and are largely ineffective or not used against gram-negative bacteria in a clinical setting.
A Blumlein pulsed generator consisting of two lines comprised of twelve 2000 pF capacitors connected by inductors produced 300 ns EPs with rise-times of 30 ns and fall-times of 35 ns at a repetition frequency of 1 Hz (12). The EPs were applied to a standard 2 mm gap electroporation cuvette (Dot Scientific R) filled with a solution containing the microorganisms. Used was a Luria broth of 0.5% salinity (5 grams of NaCl/Liter) for the solution to electrically match the resistance of the sample with the impedance of the pulse generator (11Ω) to prevent signal reflection. The voltage measurements were taken using a LeCroy PPE 20 kV high voltage probe with a 1000:1 attenuation recorded by a TeleDyne LeCroy® Waverunner 6 Zi Oscilloscope with a bandwidth of 4 GHZ.
The gram-negative strains included a carbapenem-resistant Escherichia coli (ATCC® BA-2452TM, New Delhi metallo-beta-lactamase NDM-1 positive.), Klebsiella pneumoniae (ATCC® BAA-2146TM NDM-I positive), and a gentamicin, streptomycin and sulfonamide resistant Pseudomonas aeruginosa (BEI Resources NR-31040). Assessed was the gram-positive strain of methicillin resistant Staphylococcus aureus (USA300-0114 strain), which is also resistant to erythromycin and tetracycline. Samples were cultured in Luria broth (LB Broth Lennox, powder microbial growth medium, SIGMA-ALDRICH®) by taking 25 mL of broth in a 50 mL sterile conical tube and incubating in a shaker for 16 h at 37° C. Samples were diluted 50% by adding 25 mL media to the incubated sample as we plated controls for each experiment and condition.
Samples were treated in 2 mm gap cuvettes containing 365 μL of sample between the electrodes, with bio-grade mineral oil added on top of the electrode plates to prevent arcing.
To establish a common baseline for comparing different NSEP parameters, we fixed the energy density U delivered to the cuvettes according to Formula (1) (above). For 300 ns EPs, 500 EPs at 20 kV/cm and 222 EPs at 30 kV/cm delivered the same energy to the sample.
Tissue culture Petri dishes from VWR R (15 cm diameter, 10 mm height) were utilized for plating. Each plate was covered with 15 mL of Luria broth (Agar, microbiology tested powder, SIGMA-ALDRICH®), which was prepared by adding 20 g of LB Lennox (SIGMA-ALDRICH) and 15 g/L of agar to water prior to being autoclaved. The salinity of the agar was the same as the LB (0.5% NaCl) to minimize additional environmental stressors on the bacteria.
Removed was 20 μL from each cuvette and added to 180 μL of PBS in a 96-well dish in triplicate. Each well was then diluted by a ratio of 10:1 five additional times by taking 20 μL of the diluted sample into subsequent wells using multi-channel pipettes (using fresh tips for each dilution). Plated were the six dilutions of each sample two times each by adding 4 μL from each well onto the Petri dish using a multi-channel pipette, which allowed the plating of all three replicates on the same plate to achieve n=6. These plates were then cultured overnight in an incubator at 37° C., and counted the next day.

Regarding `CO[C@H]1/C=C/O[C@@]2(C)Oc3c(C)c(O)c4c(O)c(c(/C=N/N5CCN(C)CC5)c(O)c4c3C2=O)NC(=O)/C(C)=C\C=C\[C@H](C)[C@H](O)[C@@H](C)[C@@H](O)[C@@H](C)[C@H](OC(C)=O)[C@@H]1C` [rifampicin], the “synergy (FIG. 11B legend)” value is reported as “approximately 2 log”.
